Earlier results as cited in patent US20040043030A1, “Polymeric delivery systems” (Immunomedics, Inc., priority 2001, published 2004).

Experiments:
[1] = biological target: T1, human beta-D-glucuronidase (Homo sapiens, UniProt P08236); settings: Arcamone, Cancer Res., 45:5995, 1985
T1 sequence (P08236 23-651): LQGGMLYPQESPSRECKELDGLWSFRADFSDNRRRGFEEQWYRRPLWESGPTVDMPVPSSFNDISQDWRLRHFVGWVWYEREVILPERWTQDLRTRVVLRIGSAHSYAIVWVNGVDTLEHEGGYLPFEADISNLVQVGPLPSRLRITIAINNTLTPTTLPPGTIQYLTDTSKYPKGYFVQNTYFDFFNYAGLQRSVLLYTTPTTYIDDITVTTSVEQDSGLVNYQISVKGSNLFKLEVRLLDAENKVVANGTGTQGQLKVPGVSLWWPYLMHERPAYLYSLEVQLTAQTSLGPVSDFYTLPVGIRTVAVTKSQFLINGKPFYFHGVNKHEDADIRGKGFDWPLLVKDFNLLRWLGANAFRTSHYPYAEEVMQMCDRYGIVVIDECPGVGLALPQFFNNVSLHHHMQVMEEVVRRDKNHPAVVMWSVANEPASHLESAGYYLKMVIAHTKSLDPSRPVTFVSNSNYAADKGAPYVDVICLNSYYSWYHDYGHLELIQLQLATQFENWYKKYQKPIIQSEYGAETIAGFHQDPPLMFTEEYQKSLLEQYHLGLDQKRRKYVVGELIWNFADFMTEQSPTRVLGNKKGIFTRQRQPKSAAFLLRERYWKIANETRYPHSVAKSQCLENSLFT

tumor cells = settings: relative to doxorubicin

| Compound | substrate for human beta-D-glucuronidase [1] | more toxic to tumor cells than doxorubicin itself (tumor cells) |
| --- | --- | --- |
| COc1cccc2c1C(=O)c1c(O)c3c(c(O)c1C2=O)C[C@@](O)(C(=O)CO)C[C@@H]3O[C@H]1C[C@H](N)[C@@H](O)[C@H](C)O1 [epirubicin] | substrate | – |
| COc1cccc2c1C(=O)c1c(O)c3c(c(O)c1C2=O)C[C@@](O)(C(=O)CO)C[C@@H]3O[C@H]1C[C@H](N2C=CCC2)[C@H](O)[C@H](C)O1 [Example 2-PDOX, 2-pyrrolinodoxorubicin] | – | 100-1000 |
